Paper PMC4460250, “Systems Pharmacology Dissecting Holistic Medicine for Treatment of Complex Diseases: An Example Using Cardiocerebrovascular Diseases Treated by TCM” (Evidence-based Complementary and Alternative Medicine : eCAM, 2015)
Read-outs that look alike come from different tables or passages of the source.

Legend:
PTGS1 = biological target: T1, PTGS1 (Ovis aries, UniProt P05979); assay: PTGS1 inhibition assay (ligand-binding assay, manufacturer's instructions); type: biochemical; settings: Bliss method, three independent determinations, read-out: IC50 (μM): mean ± SD
T1 sequence (P05979 25-600): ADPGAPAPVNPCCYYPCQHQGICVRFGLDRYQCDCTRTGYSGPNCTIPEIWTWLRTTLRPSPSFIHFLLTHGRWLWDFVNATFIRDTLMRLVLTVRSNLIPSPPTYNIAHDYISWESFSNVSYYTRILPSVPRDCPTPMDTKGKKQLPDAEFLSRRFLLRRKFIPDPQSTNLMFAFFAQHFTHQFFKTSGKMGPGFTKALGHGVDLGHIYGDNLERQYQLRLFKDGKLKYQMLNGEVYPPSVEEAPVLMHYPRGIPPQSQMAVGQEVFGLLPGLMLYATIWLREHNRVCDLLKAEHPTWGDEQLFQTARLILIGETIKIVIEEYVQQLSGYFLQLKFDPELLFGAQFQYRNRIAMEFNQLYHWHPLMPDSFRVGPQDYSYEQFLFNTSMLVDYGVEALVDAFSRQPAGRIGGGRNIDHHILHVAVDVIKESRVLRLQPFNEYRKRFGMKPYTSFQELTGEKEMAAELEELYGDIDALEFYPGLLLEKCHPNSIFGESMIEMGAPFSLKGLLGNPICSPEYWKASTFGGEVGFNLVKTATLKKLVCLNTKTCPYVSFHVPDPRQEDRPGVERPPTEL
Protocol: To validate the practicability and efficiency of above methods, the inhibitory effects of drugs on predicted targets were quantified by ligand-binding assays according to the manufacturer's instructions. The drug-target interactions were selected at random and readily available on the market, respectively. […] Targets PIM1 and PTGS1 were respectively purchased from Cayman Chemical, Ann Arbor, MI, USA and CycLex, Japan. The purity of all the compounds is >98%. All drugs were dissolved in DMS and freshly prepared due to loss of activity under long-term storage. IC50 values were determined using the Bliss method with three independent determinations.

PIM1 = PIM1 (Homo sapiens, UniProt P11309); assay: PIM1 inhibition assay (ligand-binding assay, manufacturer's instructions); type: biochemical; settings: Bliss method, three independent determinations, read-out: IC50 (μM): mean ± SD
PIM1, sequence (P11309 whole entry): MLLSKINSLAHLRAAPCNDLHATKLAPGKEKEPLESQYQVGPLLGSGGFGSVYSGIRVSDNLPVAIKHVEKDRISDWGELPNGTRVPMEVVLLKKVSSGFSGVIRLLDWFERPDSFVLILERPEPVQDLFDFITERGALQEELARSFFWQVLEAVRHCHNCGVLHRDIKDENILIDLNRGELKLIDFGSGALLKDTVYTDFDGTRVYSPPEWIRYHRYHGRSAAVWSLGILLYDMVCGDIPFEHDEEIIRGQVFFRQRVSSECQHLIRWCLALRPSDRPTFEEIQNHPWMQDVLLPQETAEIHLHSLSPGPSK

[1] = Human intestinal absorption percentage values of the PreHIA data set (732 compounds, Table S2); settings: class from HIA value
[2] = cited from earlier work
[3] = human, PreHIA data set, value given as fraction

Row | Structure (SMILES) | IC50 (PTGS1) | IC50 (PIM1) | Class(High: HIA value ≥0.7; Low: HIA value < 0.7) [1] | HIA(Human Intestinal Absorption) [2, 3] | HIA(Human Intestinal Absorption) ([2]; in vivo)
1 | O=c1c(O[C@@H]2O[C@H](CO)[C@@H](O)[C@H](O)[C@H]2O)c(-c2ccc(O)cc2)oc2cc(O)cc(O)c12 [Kaempferol-3-glucoside] | 74 µM |  |  |  | 
2 | O=c1c(O[C@@H]2O[C@H](CO)[C@@H](O)[C@H](O)[C@H]2O)c(-c2ccc(O)cc2)oc2cc(O)cc(O)c12 [Astragalin] |  | 62 ± 9.7 µM |  |  | 
3 | C[C@@H]1O[C@@H](OC[C@H]2O[C@@H](Oc3c(-c4ccc(O)c(O)c4)oc4cc(O)cc(O)c4c3=O)[C@H](O)[C@@H](O)[C@@H]2O)[C@H](O)[C@H](O)[C@H]1O [Rutin] |  | 57 ± 5.8 µM |  |  | 
4 | COc1cc(C)c([S+](C)[O-])cc1OC (stereo not drawn) [Tolmesoxide] |  |  | High (High: HIA value ≥0.7) | 0.98 | 
5 | C[N+]1(C)CCC(=C(c2ccccc2)c2ccccc2)CC1 [Diphemanil] |  |  | Low (Low: HIA value < 0.7) | 0.07 | 
6 | Cc1ccc(Cl)c(Nc2ccccc2C(=O)O)c1Cl [Meclofenamic_acid] |  |  | High (High: HIA value ≥0.7) | 1 | 
7 | CN1[C@@H]2CC[C@H]1C[C@@H](OC(=O)c1c[nH]c3ccccc13)C2 [Tropisetron] |  |  | High (High: HIA value ≥0.7) | 0.95 | 
8 | CC(C)NCC(O)COc1ccc(CCNC(=O)NC(C)C)cc1 (stereo not drawn) [Pafenolol] |  |  | Low (Low: HIA value < 0.7) | 0.29 | 
9 | O=CN(O)CCCP(=O)(O)O [Fosmidomycin] |  |  | Low (Low: HIA value < 0.7) | 0.3 | 
10 | Cn1nnc2c(C(N)=O)ncn2c1=O [Temozolomide] |  |  | High (High: HIA value ≥0.7) | 1 | 
11 | NC(=O)N1C(=O)/C(=C(\O)c2cccs2)c2cc(Cl)ccc21 [Tenidap] |  |  | High (High: HIA value ≥0.7) |  | 0.89
12 | CCOC(=O)C1=C(C)NC(C)=C(C(=O)OCC)C1c1ccccc1/C=C/C(=O)OC(C)(C)C [Lacidipine] |  |  | High (High: HIA value ≥0.7) | 0.98 | 
13 | C[N+]1(CCCCC[N+]2(C)CCCC2)CCCC1 [Pentolinium] |  |  | Low (Low: HIA value < 0.7) | 0.05 | 
14 | C[C@H]([C@](O)(Cn1cncn1)c1ccc(F)cc1F)S(C)(=O)=O [Genaconazole] |  |  | High (High: HIA value ≥0.7) | 1 | 
15 | NC(=O)OCC(COC(N)=O)c1ccccc1 [Felbamate] |  |  | High (High: HIA value ≥0.7) | 0.9 | 
